Laboratory results as given in patent publication US9427415B2, “Methods and compositions for modifying sensorial perception” (The Procter & Gamble Company, priority 2014, dated 2016).
Read-outs that look alike come from different tables or passages of the source.

Legend:
human TRPA1 = molecular target: T1, human TRPA1 (Homo sapiens, UniProt O75762, K186N/R3C/R58T); test: Intracellular calcium (Fluo-4, FLIPR) activation of TRPA1 cells by GRAS compounds; assay type: cell-based; details: relative to AITC 30 μM; for activation at 1000 µM: read-out: A1 activation, % of agonist value;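 for all read-outs here: TRPA1-expressing cells, fluorescence read on a FLIPR Tetra (ex 488 nm, em 514 nm) every 2 s for 10 min after compound addition, baseline subtracted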
T1 construct: expressed in transfected cells; pcDNA3 control cells

TRPA1V1 = test: Intracellular calcium (Fluo-4, FLIPR) activation of TRPA1V1 cells (co-expressing TRPA1 and TRPV1) by GRAS compounds; assay type: cell-based, human;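 note: HEK293 cells co-expressing TRPA1 and TRPV1, fluorescence read at 488/514 nm after baseline subtraction, recorded every 2 s over 10 min, ionomycin 10 µM and buffer as controls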
human TRPV1 = molecular target: T2, human TRPV1 (Homo sapiens, UniProt Q8NER1, M315I/T336M); test: Intracellular calcium (Fluo-4, FLIPR) activation of TRPV1 cells by GRAS compounds; assay type: cell-based; details: for V1 activation, % of agonist value / activation at 1000 µM: relative to capsaicin 350 nM; for activation at 1000 µM: read-out: V1 activation, % of agonist value;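 for all read-outs here: TRPV1-expressing cells, FLIPR fluorescence at 488/514 nm with baseline subtracted, sampled every 2 s for 10 min after adding compound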
T2 construct: expressed in transfected cells; pcDNA3 control cells

[1] = Table 1(b), 1 mM, relative to AITC 30 μM
[2] = Table 1(a), 1 mM, average of three plates
[3] = Table 1(a), 1 mM, relative to AITC 30 μM, average of three plates

T2 sequence (Q8NER1 whole entry M315I/T336M): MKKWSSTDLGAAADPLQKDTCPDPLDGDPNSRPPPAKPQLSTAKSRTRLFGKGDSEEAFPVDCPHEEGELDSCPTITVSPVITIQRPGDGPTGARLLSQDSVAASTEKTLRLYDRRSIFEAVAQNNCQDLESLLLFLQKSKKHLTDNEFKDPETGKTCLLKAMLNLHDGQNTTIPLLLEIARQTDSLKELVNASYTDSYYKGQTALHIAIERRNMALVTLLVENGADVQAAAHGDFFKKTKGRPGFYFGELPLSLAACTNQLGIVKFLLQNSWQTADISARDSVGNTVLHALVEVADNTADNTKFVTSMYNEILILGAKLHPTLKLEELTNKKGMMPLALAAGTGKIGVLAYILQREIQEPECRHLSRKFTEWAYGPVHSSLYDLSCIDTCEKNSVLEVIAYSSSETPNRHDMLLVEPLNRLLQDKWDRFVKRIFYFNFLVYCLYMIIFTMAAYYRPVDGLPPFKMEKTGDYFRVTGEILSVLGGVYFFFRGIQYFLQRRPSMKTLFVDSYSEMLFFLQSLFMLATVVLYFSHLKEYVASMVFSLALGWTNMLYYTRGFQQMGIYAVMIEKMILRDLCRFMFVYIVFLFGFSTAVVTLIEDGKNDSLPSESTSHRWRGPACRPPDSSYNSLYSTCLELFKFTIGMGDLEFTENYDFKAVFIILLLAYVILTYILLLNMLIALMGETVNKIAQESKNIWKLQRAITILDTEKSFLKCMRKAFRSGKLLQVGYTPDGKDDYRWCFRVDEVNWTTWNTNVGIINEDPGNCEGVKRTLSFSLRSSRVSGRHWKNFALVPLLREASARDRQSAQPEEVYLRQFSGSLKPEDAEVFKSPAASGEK
T1 sequence (O75762 whole entry R3C/R58T/K186N): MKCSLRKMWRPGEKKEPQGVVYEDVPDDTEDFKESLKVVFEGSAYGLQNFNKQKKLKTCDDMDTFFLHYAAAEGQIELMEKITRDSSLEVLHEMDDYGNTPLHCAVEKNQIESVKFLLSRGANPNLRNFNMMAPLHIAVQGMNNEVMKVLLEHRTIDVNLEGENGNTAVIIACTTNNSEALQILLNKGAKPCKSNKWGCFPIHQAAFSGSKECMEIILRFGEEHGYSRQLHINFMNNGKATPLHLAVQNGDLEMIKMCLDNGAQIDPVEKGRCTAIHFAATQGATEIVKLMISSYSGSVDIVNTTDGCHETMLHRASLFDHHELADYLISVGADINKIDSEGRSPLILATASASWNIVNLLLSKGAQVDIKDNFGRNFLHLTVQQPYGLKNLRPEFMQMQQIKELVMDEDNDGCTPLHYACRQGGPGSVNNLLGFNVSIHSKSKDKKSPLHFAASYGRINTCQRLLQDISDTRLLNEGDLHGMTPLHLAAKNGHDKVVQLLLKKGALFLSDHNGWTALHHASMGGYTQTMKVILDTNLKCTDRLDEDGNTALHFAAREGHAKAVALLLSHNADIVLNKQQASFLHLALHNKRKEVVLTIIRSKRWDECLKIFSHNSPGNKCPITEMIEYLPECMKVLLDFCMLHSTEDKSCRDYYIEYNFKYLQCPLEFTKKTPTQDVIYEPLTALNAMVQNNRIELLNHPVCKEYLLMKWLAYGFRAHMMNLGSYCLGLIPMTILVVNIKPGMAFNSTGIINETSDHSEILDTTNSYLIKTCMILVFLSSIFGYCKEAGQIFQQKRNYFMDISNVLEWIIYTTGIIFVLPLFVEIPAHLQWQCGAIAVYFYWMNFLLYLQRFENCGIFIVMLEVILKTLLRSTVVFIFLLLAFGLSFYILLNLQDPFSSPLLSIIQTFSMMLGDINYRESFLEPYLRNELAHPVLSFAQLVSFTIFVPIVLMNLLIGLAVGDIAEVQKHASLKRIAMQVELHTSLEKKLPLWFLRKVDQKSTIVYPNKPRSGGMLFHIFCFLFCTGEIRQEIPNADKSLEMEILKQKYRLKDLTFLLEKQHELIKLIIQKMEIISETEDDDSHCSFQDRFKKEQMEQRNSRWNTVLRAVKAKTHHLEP

Q: What does the source list for `COc1cc(C2OCC(C)O2)ccc1O` (stereo not shown) [Vanillin propylene glycol acetal]?
A: A1 activation, % of agonist value (human TRPA1; Table 1(b), 1 mM): 76.21%; A1V1 activation, % of agonist value (TRPA1V1; [1]): 94.49%; V1 activation, % of agonist value (human TRPV1; Table 1(b), 1 mM): 57.97%

Q: With `CCOCc1ccc(O)c(OC)c1` [Vanillyl ethyl ether] as the compound, how does the activation at 1000 µM (human TRPA1; [2]) read?
A: 38%

Q: And the “A1V1 activation, % of agonist value” (TRPA1V1; [3])?
A: 59.64%

Q: And the activation at 1000 µM (human TRPV1; [2])?
A: 67.6%

Q: For `COc1cc(CCC(C)=O)ccc1O` [Vanillylacetone], which activation at 1000 µM (human TRPA1; Table 1(b), 1 mM) is on record?
A: 22.3%

Q: What about the “A1V1 activation, % of agonist value” (TRPA1V1; [1]) of the same compound?
A: 37.75%

Q: What about the activation at 1000 µM (human TRPV1; Table 1(b), 1 mM) of the same compound?
A: 60%

Q: Which “A1 activation, % of agonist value” (human TRPA1; [2]) does the source give for `C=CCc1cccc(OC)c1O` [o-Eugenol] here?
A: 128.4%

Q: What about the “A1V1 activation, % of agonist value” (TRPA1V1; [3]) of the same compound?
A: 158.3%

Q: And the “V1 activation, % of agonist value” (human TRPV1; [2])?
A: 64.5%

Q: With Desoxycholic acid as the compound, how does the “A1 activation, % of agonist value” (human TRPA1; Table 1(i), 100 μM (*), […]) read?
A: 3.2%

Q: What about the “A1V1 activation, % of agonist value” (TRPA1V1; Table 1(i), 100 μM (*), relative to AITC 30 μM or capsaicin 350 nM depending on compound, […]) of the same compound?
A: 2.9%

Q: What about the “V1 activation, % of agonist value” (human TRPV1; Table 1(i), 100 μM (*), […]) of the same compound?
A: 84.4%

Q: And the “TRPV1 activation selectivity, in words” value (human TRPV1; statement in description, see Table 1(i))?
A: TRPV1 activators which do not modulate TRPA1 or TRPA1V1
